Laboratory results published in BindingDB's records for doi:10.1021/jm00043a006 (Parke-Davis Pharmaceutical Research, 1994).
pIC50: −log10 of the molar value.

These molecules were tested against T1, Dimer of Gag-Pol polyprotein [489-587] (Human immunodeficiency virus 1, UniProt P12497) (assay: Protease Inhibition Assay). Conditions: pH 4.7; 37 °C.
T1 construct: 489-587
Method: For determination of IC50 values, HIV-1 protease was added to assay buffer containing inhibitor and the substrate (H-His-Lys-Ala-Arg-Val-Leu- (p-NO2) Phe-Glu-Ala-norleucine-Ser-NH2). The Leu- (p-NO2) Phe bond of the substrate was cleaved by the enzyme, and the substrate and products were separated by reversed-phase HPLC. Absorbance was measured at 220 nm, peak areas were determined, and percentage conversion to product was calculated.

`O=c1[nH]c2ccccc2c(O)c1CCCOc1ccccc1` [4-hydroxy-3-(3-phenoxypropyl)-1,2-dihydroquinolin-2-one] and `O=c1oc2ccccc2c(O)c1CCCCOc1ccccc1` [4-hydroxy-3-(4-phenoxybutyl)-2H-chromen-2-one] cannot be ordered by pIC50: less than 3.70 for the first, less than 4.00 for the second.

First: COc1ccccc1CCCCc1c(O)c2ccccc2oc1=O [4-hydroxy-3-[4-(2-methoxyphenyl)butyl]-2H-chromen-2-one]
Second: COc1ccccc1OCCCc1c(O)c2ccccc2oc1=O [4-hydroxy-3-[3-(2-methoxyphenoxy)propyl]-2H-chromen-2-one]
The pIC50 of the first is 1.41 log units higher: 5.77 for the first, 4.36 for the second.

First: O=C(O)c1cccc(OCCCc2c(O)c3ccccc3oc2=O)c1 [3-[3-(4-hydroxy-2-oxo-2H-chromen-3-yl)propoxy]benzoic acid]
Second: NC(=O)c1cccc(OCCCc2c(O)c3ccccc3oc2=O)c1 [3-[3-(4-Hydroxy-2-oxo-2H-1-benzopyran-3-yl)prpoxyl-benzamide]
The pIC50 of the first is 0.26 log units lower: 5.15 for the first, 5.41 for the second. The second is the more potent here.

Compared with `O=c1oc2ccccc2c(O)c1CC/C(=N/O)c1ccccc1` [4-Hydroxy-3-[3-(hydroroKyimino)-3-phenylpropyl] -2H-1-benzopyran-2-one], `Nc1cccc(OCCCc2c(O)c3ccccc3oc2=O)c1` [3-[3-(3-aminophenoxy)propyl]-4-hydroxy-2H-chromen-2-one] is 1.04 log units higher in pIC50: 4.15 for the first, 5.19 for the second. The second is the more potent here.

Compared with `COc1ccc(CCCCc2c(O)c3ccccc3oc2=O)cc1` [4-hydroxy-3-[4-(4-methoxyphenyl)butyl]-2H-chromen-2-one], `O=c1oc2ccccc2c(O)c1CCCOc1cccc(CO)c1` [4-hydroxy-3-{3-[3-(hydroxymethyl)phenoxy]propyl}-2H-chromen-2-one] is higher in pIC50: less than 4.00 for the first, 5.64 for the second.

Compared with `CCOC(=O)c1cccc(OCCCc2c(O)c3ccccc3oc2=O)c1` [ethyl 3-[3-(4-hydroxy-2-oxo-2H-chromen-3-yl)propoxy]benzoate], `O=c1oc2ccccc2c(O)c1CCCO` [4-Hydroxy-3-(3-hydroxypropyl)-2H-1-benzopyran-2-one] is 1.78 log units lower in pIC50: 5.85 for the first, 4.07 for the second.

With `COc1ccccc1CCCCc1c(O)c2ccc(OCc3ccccc3)cc2oc1=O` [7-(benzyloxy)-4-hydroxy-3-[4-(2-methoxyphenyl)butyl]-2H-chromen-2-one] the pIC50 was less than 4.00.
